We go through 3 compounds from patent US5519008A, “Derivatives of triterpenoid acids as inhibitors of cell-adhesion molecules ELAM-1 (E-selectin) and LECAM-1 (L-selectin)” (Glycomed Incorporated, priority 1992, dated 1996).

The conditions of data set [1]: literature statement, Baren et al., J. Med. Chem. 17(2) (1974) 184-191; cited from earlier work.
Data set [2] has as its system arachidonic acid (AA), murine skin inflammation. Briefly: arachidonic acid (AA) murine skin (ear) inflammation model. The note with it: 10 μl of 100mg/ml solution applied to the ear immediately after AA; 6mm ear disk weighed 90 minutes later; average of 6 experiments. Format: in vivo. How it is done:
For comparison, glycyrrhetinic acid was also tested. […] 10 μl of each compound was applied to the ear. […] 90 minutes later a 6mm disk of each ear was removed, and weighed. […] The results were the average of 6 experiments.

Turning to `CC1(C)[C@@H](O)CC[C@]2(C)[C@H]3CC=C4[C@@H]5C[C@@](C)(C(=O)O)CC[C@]5(C)CC[C@@]4(C)[C@]3(C)CC[C@@H]12` [11-deoxoglycyrrhetinic acid], the “aldosterone (DCA)-like activity” value in data set [1] is “does not substantially show the DCA activity”. As to “3β-O-(α-L-fucopyranosyl)-18β-olean-12-en-30-oic Acid [3-0-fucoside-18-β glycyrrhetinic acid]”, the “reduction of the % maximal inflammatory response caused by AA alone” value in data set [2] is “about 60%”. Regarding `CC1(C)[C@@H](O)CC[C@]2(C)[C@H]3C(=O)C=C4[C@@H]5C[C@@](C)(C(=O)O)CC[C@]5(C)CC[C@@]4(C)[C@]3(C)CC[C@@H]12` [glycyrrhetinic acid], in data set [2], the “reduction of the % maximal inflammatory response caused by AA alone” value is recorded as “about 60%”.
